These results are taken from US11382918B2, “Methods for treating Huntington's Disease” (PTC Therapeutics, Inc., priority 2017, dated 2022).

Structures can show the parent of a compound that is named as a salt. Where only a bound is given, the exact number is not on record here.

This experiment deals with Endogenous Huntingtin Protein (HTT). Nature of the experiment: Endogenous Huntingtin Protein Assay (ELISA-based MSD electrochemiluminescence). As to conditions: Table 1. It is filed as cell-based. An outline of the steps:
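HTT protein in lysates was measured by electrochemiluminescence on the MSD platform. Rabbit monoclonal 5656S followed by SULFO-TAG anti-rabbit antibody served for detection after overnight 4 °C capture with MAB2166 or the polyglutamine-directed MW1 antibody.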
For orientation: An ELISA detects its analyte on a solid surface through an enzyme-linked reagent.
Consider `Cc1cc(N(C)C2CC(C)(C)NC(C)(C)C2)cn2c(=O)cc(-c3ccc4nn(C)cc4c3)nc12` [compound 853, 9-methyl-2-(2-methyl-2H-indazol-5-yl)-7-[methyl(2,2,6,6-tetramethylpiperidin-4-yl)amino]-4H-pyrido[1,2-a]pyrimidin-4-one], for which the IC50 (as a rule, the concentration that gives 50% inhibition) fell in the range of 3 to 33 µM. On to `O=c1cc(-c2cnn(C3CCCCO3)c2)nc2ccc(N3CCNCC3)cn12` (stereo not shown) [compound 854, 7-(piperazin-1-yl)-2-[1-(tetrahydro-2H-pyran-2-yl)-1H-pyrazol-4-yl]-4H-pyrido[1,2-a]pyrimidin-4-one], for which the IC50 lay in the range of 3 to 33 µM. As to `O=c1cc(-c2cn[nH]c2)nc2ccc(N3CCNCC3)cn12` [compound 855, 7-(piperazin-1-yl)-2-(1H-pyrazol-4-yl)-4H-pyrido[1,2-a]pyrimidin-4-one hydrochloride (1:1)], the IC50 is 3 to 33 µM. As for `Cc1cc2cc(-c3cc(=O)n4cc(N5CCN[C@@H](C)C5)ccc4n3)ccn2n1` [compound 856, 7-[(3S)-3-methylpiperazin-1-yl]-2-(2-methylpyrazolo[1,5-a]pyridin-5-yl)-4H-pyrido[1,2-a]pyrimidin-4-one hydrochloride (1:2)], the figure is 1 to 3 µM; as for `Cc1cc2cc(-c3cc(=O)n4cc(C5=CCNCC5)ccc4n3)ccn2n1` [compound 857, 2-(2-methylpyrazolo[1,5-a]pyridin-5-yl)-7-(1,2,3,6-tetrahydropyridin-4-yl)-4H-pyrido[1,2-a]pyrimidin-4-one], 0.5 to 1 µM; as for `CCN1CC=C(c2ccc3nc(-c4ccn5nc(C)cc5c4)cc(=O)n3c2)CC1` [compound 858, 7-(1-ethyl-1,2,3,6-tetrahydropyridin-4-yl)-2-(2-methylpyrazolo[1,5-a]pyridin-5-yl)-4H-pyrido[1,2-a]pyrimidin-4-one], 1 to 3 µM.

Consider `Cc1cc2cc(-c3cc(=O)n4cc(N5CCNCC5)ccc4n3)ccn2n1` [compound 859, 2-(2-methylpyrazolo[1,5-a]pyridin-5-yl)-7-(piperazin-1-yl)-4H-pyrido[1,2-a]pyrimidin-4-one hydrochloride (1:2)], for which the IC50 was 1 to 3 µM.

`Cc1cc(-c2cc(=O)n3cc(C4=CCNCC4)ccc3n2)nc2cnn(C)c12` [compound 860, 2-(1,7-dimethyl-1H-pyrazolo[4,3-b]pyridin-5-yl)-7-(1,2,3,6-tetrahydropyridin-4-yl)-4H-pyrido[1,2-a]pyrimidin-4-one hydrochloride (1:2)] had an IC50 of 3 to 33 µM.

The compound `Cc1nc(-c2cc(=O)n3cc(C4=CCNCC4)ccc3n2)cc2cnn(C)c12` [compound 861, 2-(1,7-dimethyl-1H-pyrazolo[3,4-c]pyridin-5-yl)-7-(1,2,3,6-tetrahydropyridin-4-yl)-4H-pyrido[1,2-a]pyrimidin-4-one hydrochloride (1:2)] had an IC50 of 3 to 33 µM. With `Cc1nc(-c2cc(=O)n3cc(C4=CCNCC4)ccc3n2)cc2cn(C)nc12` [compound 862, 2-(2,7-dimethyl-2H-pyrazolo[3,4-c]pyridin-5-yl)-7-(1,2,3,6-tetrahydropyridin-4-yl)-4H-pyrido[1,2-a]pyrimidin-4-one hydrochloride (1:2)], the IC50 lay within 1 to 3 µM.

`Cc1cc(-c2cc(=O)n3cc(C4=CCNCC4)ccc3n2)nc2cn(C)nc12` [compound 863, 2-(2,7-dimethyl-2H-pyrazolo[4,3-b]pyridin-5-yl)-7-(1,2,3,6-tetrahydropyridin-4-yl)-4H-pyrido[1,2-a]pyrimidin-4-one hydrochloride (1:2)] came in with an IC50 of 1 to 3 µM. Regarding `CCN1CCC(c2cn3c(=O)cc(-c4ccc5nn(C)cc5c4)nc3c(C)n2)CC1` [compound 864, 7-(1-ethylpiperidin-4-yl)-9-methyl-2-(2-methyl-2H-indazol-5-yl)-4H-pyrazino[1,2-a]pyrimidin-4-one], the IC50 is under 0.1 µM. `Cc1cc(C2=CC(C)(C)NC(C)(C)C2)cn2c(=O)cc(-c3ccc4nn(C)cc4c3)nc12` [compound 865, 9-methyl-2-(2-methyl-2H-indazol-5-yl)-7-(2,2,6,6-tetramethyl-1,2,3,6-tetrahydropyridin-4-yl)-4H-pyrido[1,2-a]pyrimidin-4-one] yielded an IC50 of 3 to 33 µM. As for `Cc1cc(-c2cc(=O)n3cc(C4CC(C)(C)NC(C)(C)C4)cc(C)c3n2)cc2cn(C)nc12` [compound 866, 2-(2,7-dimethyl-2H-indazol-5-yl)-9-methyl-7-(2,2,6,6-tetramethylpiperidin-4-yl)-4H-pyrido[1,2-a]pyrimidin-4-one], the figure is 3 to 33 µM; as for `Cc1cc(C2CC(C)(C)NC(C)(C)C2)cn2c(=O)cc(-c3ccc4nn(C)cc4c3)nc12` [compound 867, 9-methyl-2-(2-methyl-2H-indazol-5-yl)-7-(2,2,6,6-tetramethylpiperidin-4-yl)-4H-pyrido[1,2-a]pyrimidin-4-one], 3 to 33 µM. For `Cc1cn2cc(-c3cc(=O)n4cc(N5CCN(C)CC5)ccc4n3)cc(C)c2n1` [compound 868, 2-(2,8-dimethylimidazo[1,2-a]pyridin-6-yl)-7-(4-methylpiperazin-1-yl)-4H-pyrido[1,2-a]pyrimidin-4-one] the value was 1 to 3 µM; for `Cc1nc(C2CCNCC2)cn2c(=O)cc(-c3cc(F)c4nn(C)cc4c3)nc12` [compound 869, 2-(7-fluoro-2-methyl-2H-indazol-5-yl)-9-methyl-7-(piperidin-4-yl)-4H-pyrazino[1,2-a]pyrimidin-4-one], under 0.1 µM; for `Cc1cn2nc(-c3cc(=O)n4cc(C5CCNCC5)nc(C)c4n3)ccc2n1` [compound 870, 9-methyl-2-(2-methylimidazo[1,2-b]pyridazin-6-yl)-7-(piperidin-4-yl)-4H-pyrazino[1,2-a]pyrimidin-4-one hydrochloride (1:2)], under 0.1 µM.

As to `Cc1cc(-c2cc(=O)n3cc(C4CCNCC4)nc(C)c3n2)cc2cn(C)nc12` [compound 871, 2-(2,7-dimethyl-2H-indazol-5-yl)-9-methyl-7-(piperidin-4-yl)-4H-pyrazino[1,2-a]pyrimidin-4-one hydrochloride (1:1)], the half-inhibitory concentration (IC50) is under 0.1 µM.

For `CCN1CCC(c2cn3c(=O)cc(-c4cc(F)c5nn(C)cc5c4)nc3c(C)n2)CC1` [compound 872, 7-(1-ethylpiperidin-4-yl)-2-(7-fluoro-2-methyl-2H-indazol-5-yl)-9-methyl-4H-pyrazino[1,2-a]pyrimidin-4-one], the IC50 was under 0.1 µM. For `CCN1CCC(c2cn3c(=O)cc(-c4ccc5nc(C)cn5n4)nc3c(C)n2)CC1` [compound 873, 7-(1-ethylpiperidin-4-yl)-9-methyl-2-(2-methylimidazo[1,2-b]pyridazin-6-yl)-4H-pyrazino[1,2-a]pyrimidin-4-one] the value was 0.1 to 0.5 µM; for `CCN1CCC(c2cn3c(=O)cc(-c4cc(C)c5nn(C)cc5c4)nc3c(C)n2)CC1` [compound 874, 2-(2,7-dimethyl-2H-indazol-5-yl)-7-(1-ethylpiperidin-4-yl)-9-methyl-4H-pyrazino[1,2-a]pyrimidin-4-one hydrochloride (1:1)], 0.1 to 0.5 µM. For `Cc1cn2cc(-c3cc(=O)n4cc(C5CCNCC5)nc(C)c4n3)cc(F)c2n1` [compound 875, 2-(8-fluoro-2-methylimidazo[1,2-a]pyridin-6-yl)-9-methyl-7-(piperidin-4-yl)-4H-pyrazino[1,2-a]pyrimidin-4-one hydrochloride (1:2)] the value was under 0.1 µM; for `CCN1CCC(c2cn3c(=O)cc(-c4cc5c(C)nc(C)cn5c4)nc3c(C)n2)CC1` [compound 876, 2-(1,3-dimethylpyrrolo[1,2-a]pyrazin-7-yl)-7-(1-ethylpiperidin-4-yl)-9-methyl-4H-pyrazino[1,2-a]pyrimidin-4-one], 1 to 3 µM. Turning to `CCN1CCC(c2cn3c(=O)cc(-c4cc(F)c5nc(C)cn5c4)nc3c(C)n2)CC1` [compound 877, 7-(1-ethylpiperidin-4-yl)-2-(8-fluoro-2-methylimidazo[1,2-a]pyridin-6-yl)-9-methyl-4H-pyrazino[1,2-a]pyrimidin-4-one], the IC50 is under 0.1 µM.
